Experimental data taken from patent publication US10227331B2 (priority 2015, dated 2019).

Legend:
VIM-1 = VIM-1 (Pseudomonas aeruginosa (strain ATCC 15692 / DSM 22644 / CIP 104116 / JCM 14847 / LMG 12228 / 1C / PRS 101 / PAO1), UniProt A0A0F7KYQ8); assay: biochemical; conditions: CCF2-FA substrate, 2 hours at 25° C
Description: Enzyme Activity: Determination of IC50
The Class B enzyme activities were measured in the presence of the test inhibitor in a fluorescence assay against a commercially available substrate consisting of a cephalosporin core linking 7-hydroxycoumarin to fluorescein (CCF2-FA). […] In a 384-well microplate, the test inhibitor was incubated with the metallo-β-lactamase enzyme and the substrate for 2 hours at 25° C. […] The IC50 value was determined from semi-logarithmic plots of enzyme inhibition versus inhibitor concentration, with a curve generated using a 4-parameter fit.

[1] = system: Escherichia coli expressing NDM-1 (CLB30005, CLB30016); assay type: cell-based; conditions: with imipenem 1 μg/ml; 95% inhibition of bacterial growth
Description: (§1) Antibiotic Potentiation Activity: Determination of Synergistic Concentration
(§2) The bacterial strains tested included the clinical strains Escherichia coli expressing NDM-1 (CLB30005, CLB30016), Serratia marcescens expressing IMP-1 (CL5741), and Klebsiella pneumoniae expressing VIM-1 (IHMA599644). Inhibitor activity was measured in the presence and absence of imipenem in a 384-well microplate.
(§3) The clinical strains CLB30016, CL5741 and IHMA599644 were grown on trypticase soy agar containing 5% sheep's blood. The bacteria on agar plates were incubated at 35° C. with humidity overnight. The following day, individual colonies from each clinical strain were picked and resuspended in 5 ml saline to attain an OD600 of […], for CLB30016, CL5741 and IHMA599644, respectively. These were further diluted 1:100 into 1.1×CAMHB and used to inoculate the test wells as described below.
(§4) Imipenem in 10 mM 3-(N-morpholino)propanesulfonic acid (MOPS, pH 7) was stored in single use aliquots at −80° C. […] On the day of the assay, 4 μl of antibiotic was added to 45 ul of bacteria followed by 1 μl of test compound and mixed by pipetting and with an orbital shaker. The concentration of antibiotic used in the assay was 1 μg/ml. Microplates were covered and incubated at 35° C. for 22 hours to 24 hours. At the end of the incubation, absorbance was determined using a spectrophotometer.
(§5) For example, in general, the compounds of Examples 1-379 were determined to restore susceptibility to imipenem for one or more of the test organisms at concentrations of 100 μM or less.

[2] = system: Klebsiella pneumoniae expressing VIM-1 (IHMA599644); assay type: cell-based; conditions: with imipenem 1 μg/ml; 95% inhibition of bacterial growth
Description: as §1, §2, §3, §4, §5

[3] = system: Serratia marcescens expressing IMP-1 (CL5741); assay type: cell-based; conditions: with imipenem 1 μg/ml; 95% inhibition of bacterial growth
Description: as §1, §2, §3, §4, §5

[4] = system: P. aeruginosa expressing IMP-1, efflux+ (MB9798); assay type: cell-based, Pseudomonas aeruginosa; conditions: for P. aeruginosa expressing IMP-1, efflux+ (MB9798) MITC95: imipenem at 2 μg/mL, in the presence of a class A, C, D serine β-lactamase inhibitor closely related to relebactam; for Efflux ratio: ratio MITC95 PA_9798/MITC95 PA_9799
From the text: (§6) The strain background is Pseudomonas aeruginosa PAO1.

[5] = system: P. aeruginosa expressing IMP-1, efflux− (MB9799); assay: Efflux: concentration of MBL inhibitor which restores susceptibility to imipenem; assay type: cell-based, Pseudomonas aeruginosa; conditions: imipenem at 2 μg/mL, in the presence of a class A, C, D serine β-lactamase inhibitor closely related to relebactam
From the text: as §6

Compound	IC50 (VIM-1) [nM]	Escherichia coli expressing NDM-1 (CLB30016) MITC95 [1] [µM]	Klebsiella pneumoniae expressing VIM-1 (IHMA599644) MITC95 [2] [µM]	Serratia marcescens expressing IMP-1 (CL5741) MITC95 [3] [µM]	P. aeruginosa expressing IMP-1, efflux+ (MB9798) MITC95 [4] [µM]	Efflux ratio [4]	P. aeruginosa expressing IMP-1, efflux− (MB9799) MITC95 [5] [µM]
Nc1nc2cc(-c3ccc([S+]([O-])C4CNC4)c(S(N)(=O)=O)c3-c3nn[nH]n3)ccc2[nH]1 (stereo not drawn) [Example 11, 3-(2-amino-1H-benzo[d]imidazol-5-yl)-6-(azetidin-3-ylsulfinyl)-2-(2H-tetrazol-5-yl)benzenesulfonamide]	1.86	0.3906	0.3906	0.7813	3.125	8.00	0.3906
Nc1nc2ccc(-c3ccc(S(=O)(=O)C4CCNCC4)c(S(N)(=O)=O)c3-c3nn[nH]n3)cc2[nH]1 [Example 41, 3-(2-amino-3H-benzo[d]imidazol-5-yl)-6-(piperidin-4-ylsulfonyl)-2-(2H-tetrazol-5-yl)benzenesulfonamide]	0.171	1.563	1.563	1.563	3.125	4.00	0.7813
Nc1cnccc1-c1ccc(S(=O)(=O)C2CNC2)c(S(N)(=O)=O)c1-c1nnn[nH]1.O=C(O)C(F)(F)F [Example 105, 3-((4-(3-aminopyridin-4-yl)-2-sulfamoyl-3-(1H-tetrazol-5-yl)phenyl)sulfonyl)azetidin-1-ium 2,2,2-trifluoroacetate]	0.759	3.125	3.125	1.563	3.125	2.00	1.563
CNc1ncc(-c2ccc(S(=O)(=O)C3CNC3)c(S(N)(=O)=O)c2-c2nnn[nH]2)cn1.O=C(O)C(F)(F)F [Example 106, 3-((4-(2-(methylamino)pyrimidin-5-yl)-2-sulfamoyl-3-(1H-tetrazol-5-yl)phenyl)sulfonyl)azetidin-1-ium 2,2,2-trifluoroacetate]	1.59	12.5	6.25	3.125	6.25	4.00	1.563
NCc1cncc(-c2ccc(S(=O)(=O)C3CNC3)c(S(N)(=O)=O)c2-c2nnn[nH]2)c1.O=C(O)C(F)(F)F [Example 107, 3-((4-(5-(aminomethyl)pyridin-3-yl)-2-sulfamoyl-3-(1H-tetrazol-5-yl)phenyl)sulfonyl)azetidin-1-ium 2,2,2-trifluoroacetate]	28.3	1.563	3.125	6.25	12.5	4.00	3.125
NS(=O)(=O)c1c(S(=O)(=O)C2CNC2)ccc(C2=CC3C=NNC3N=C2)c1-c1nnn[nH]1.O=C(O)C(F)(F)F (stereo not drawn) [Example 108, 3-((4-(3a,7a-dihydro-1H-pyrazolo[3,4-b]pyridin-5-yl)-2-sulfamoyl-3-(1H-tetrazol-5-yl)phenyl)sulfonyl)azetidin-1-ium 2,2,2-trifluoroacetate]	0.612	6.25	6.25	3.125	25	15.99	1.563
